# PubChem BioAssay AID248 (DTP/NCI, 2004)
# Values joined by “and” are separate entries in the source; they are usually repeats but may differ in a detail not shown here. Identical values can stand only once. Inconclusive results and toxic doses are left out.
# Tested on: L1210 leukemia ip in BDF1 mice, survival T/C
# Assay: NCI In Vivo Anticancer Drug Screen. Data for tumor model L1210 Leukemia (intraperitoneal) in B6D2F1 (BDF1) mice
# Details: endpoint: mean survival time, higher = longer survival
# Outline: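 Mice bearing the transplanted tumor received compound or vehicle. Survival of the treated group was divided by that of the vehicle-treated control group to give the ratio.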
# [1] = dose: 100.0 mg/kg/injection, schedule: Q01DX001 (ip), vehicle: saline
# [2] = dose: 200.0 mg/kg/injection, schedule: Q01DX001 (ip), vehicle: saline
# [3] = dose: 400.0 mg/kg/injection, schedule: Q01DX001 (ip), vehicle: saline
# [4] = dose: 100.0 mg/kg/injection, schedule: Q01DX001 (ip), vehicle: saline with Tween-80
# [5] = dose: 100.0 mg/kg/injection, schedule: Q01DX009 (ip), vehicle: Klucel (hydroxypropylcellulose) (HPC)
# [6] = dose: 200.0 mg/kg/injection, schedule: Q01DX009 (ip), vehicle: Klucel (hydroxypropylcellulose) (HPC)
# [7] = dose: 400.0 mg/kg/injection, schedule: Q01DX009 (ip), vehicle: Klucel (hydroxypropylcellulose) (HPC)
# [8] = dose: 100.0 mg/kg/injection, schedule: Q04DX003 (ip), vehicle: saline
smiles,measurement,setting,value
COc1ccc(OC)c(C(=O)CC2OCCO2)c1,T/C,[1],95 % of control
same,T/C,[2],95 % of control
same,T/C,[3],105 % of control
c1ccc2c(c1)ccc1[nH]c3ccccc3c12,T/C,[1],120 % of control
same,T/C,[2],96 % of control
same,T/C,[3],93 % of control
Nc1nc(SCc2ccccc2)c2[nH]cnc2n1,T/C,"dose: 4.0 mg/kg/injection, schedule: Q01DX Z (ip), vehicle: carboxymethylcellulose (CMC)",124 % of control
same,T/C,"dose: 5.0 mg/kg/injection, schedule: Q03DX Z (ip), vehicle: carboxymethylcellulose (CMC)",92 % of control
same,T/C,"dose: 8.0 mg/kg/injection, schedule: Q01DX010 (ip), vehicle: saline",100 % of control
same,T/C,"dose: 8.0 mg/kg/injection, schedule: Q01DX Z (oral), vehicle: carboxymethylcellulose (CMC)",158 % of control
same,T/C,"dose: 10.0 mg/kg/injection, schedule: Q01DX Z (ip), vehicle: carboxymethylcellulose (CMC)",152 % of control
same,T/C,"dose: 10.0 mg/kg/injection, schedule: Q03DX Z (ip), vehicle: carboxymethylcellulose (CMC)",116 % of control
same,T/C,"dose: 15.0 mg/kg/injection, schedule: Q03DX Z (ip), vehicle: carboxymethylcellulose (CMC)",124 % of control
same,T/C,"dose: 20.0 mg/kg/injection, schedule: Q01DX001 (ip), vehicle: carboxymethylcellulose (CMC)",151 % of control
same,T/C,"dose: 20.0 mg/kg/injection, schedule: Q03DX Z (ip), vehicle: carboxymethylcellulose (CMC)",216 % of control
same,T/C,"dose: 41.0 mg/kg/injection, schedule: Q01DX001 (ip), vehicle: carboxymethylcellulose (CMC)",163 % of control
same,T/C,"dose: 41.0 mg/kg/injection, schedule: Q03DX Z (ip), vehicle: carboxymethylcellulose (CMC)",158 % of control
same,T/C,"dose: 41.0 mg/kg/injection, schedule: Q07DX Z (ip), vehicle: carboxymethylcellulose (CMC)",165 % of control
same,T/C,"dose: 60.0 mg/kg/injection, schedule: Q01DX Z (ip), vehicle: carboxymethylcellulose (CMC)",118 % of control
same,T/C,"dose: 62.5 mg/kg/injection, schedule: Q01DX010 (ip), vehicle: saline",108 % of control
same,T/C,"dose: 64.0 mg/kg/injection, schedule: Q01DX Z (oral), vehicle: carboxymethylcellulose (CMC)",124 % of control
same,T/C,"dose: 82.0 mg/kg/injection, schedule: Q01DX001 (ip), vehicle: carboxymethylcellulose (CMC)",157 % of control
same,T/C,"dose: 82.0 mg/kg/injection, schedule: Q07DX Z (ip), vehicle: carboxymethylcellulose (CMC)",168 % of control
same,T/C,"dose: 86.0 mg/kg/injection, schedule: Q01DX001 (ip), vehicle: carboxymethylcellulose (CMC)",163 % of control
same,T/C,"dose: 125.0 mg/kg/injection, schedule: Q01DX010 (ip), vehicle: saline",103 % of control
same,T/C,"dose: 129.0 mg/kg/injection, schedule: Q01DX001 (ip), vehicle: carboxymethylcellulose (CMC)",160 % of control
same,T/C,"dose: 195.0 mg/kg/injection, schedule: Q01DX001 (ip), vehicle: carboxymethylcellulose (CMC)",168 % of control and 181 % of control
same,T/C,"dose: 292.0 mg/kg/injection, schedule: Q03DX Z (ip), vehicle: carboxymethylcellulose (CMC)",101 % of control
same,T/C,"dose: 292.0 mg/kg/injection, schedule: Q07DX Z (ip), vehicle: carboxymethylcellulose (CMC)",114 % of control
COC(=O)c1ccc(N(C)CC2=Nc3c(nc(N)nc3SCc3ccccc3)NC2)cc1,T/C,[4],97 % of control
same,T/C,"dose: 200.0 mg/kg/injection, schedule: Q01DX001 (ip), vehicle: saline with Tween-80",108 % of control
same,T/C,"dose: 400.0 mg/kg/injection, schedule: Q01DX001 (ip), vehicle: saline with Tween-80",101 % of control
O=C(O)CC1CCCCC1CC(=O)O (stereo not drawn),T/C,"dose: 25.0 mg/kg/injection, schedule: Q04DX002 (ip), vehicle: Klucel (hydroxypropylcellulose) (HPC)",101 % of control
same,T/C,"dose: 50.0 mg/kg/injection, schedule: Q04DX002 (ip), vehicle: Klucel (hydroxypropylcellulose) (HPC)",98 % of control
same,T/C,"dose: 100.0 mg/kg/injection, schedule: Q04DX002 (ip), vehicle: Klucel (hydroxypropylcellulose) (HPC)",92 % of control
same,T/C,"dose: 200.0 mg/kg/injection, schedule: Q04DX002 (ip), vehicle: Klucel (hydroxypropylcellulose) (HPC)",95 % of control and 97 % of control
same,T/C,"dose: 400.0 mg/kg/injection, schedule: Q04DX002 (ip), vehicle: Klucel (hydroxypropylcellulose) (HPC)",107 % of control
O=C1OC(C(Cl)(Cl)Cl)OC1C(Cl)(Cl)Cl (stereo not drawn),T/C,"dose: 25.0 mg/kg/injection, schedule: Q01DX001 (ip), vehicle: saline with Tween-80",98 % of control
same,T/C,"dose: 50.0 mg/kg/injection, schedule: Q01DX001 (ip), vehicle: saline with Tween-80",96 % of control
same,T/C,[4],93 % of control
NC(N)=NC(N)=Nc1ccccc1-c1ccccc1,T/C,[5],111 % of control
same,T/C,[6],103 % of control
same,T/C,[7],86 % of control
CCC(OBr)C1COC(Nc2ccccc2)O1 (stereo not drawn),T/C,[5],96 % of control
same,T/C,[8],95 % of control
same,T/C,[6],96 % of control
same,T/C,"dose: 200.0 mg/kg/injection, schedule: Q04DX003 (ip), vehicle: saline",105 % of control
same,T/C,[7],103 % of control
same,T/C,"dose: 400.0 mg/kg/injection, schedule: Q04DX003 (ip), vehicle: saline",101 % of control
O=c1[nH]c(C(F)(F)F)c(CCCCc2ccccc2)c(=O)[nH]1,T/C,"dose: 50.0 mg/kg/injection, schedule: Q01DX001 (ip), vehicle: Klucel (hydroxypropylcellulose) (HPC)",105 % of control
same,T/C,"dose: 100.0 mg/kg/injection, schedule: Q01DX001 (ip), vehicle: Klucel (hydroxypropylcellulose) (HPC)",94 % of control
same,T/C,"dose: 200.0 mg/kg/injection, schedule: Q01DX001 (ip), vehicle: Klucel (hydroxypropylcellulose) (HPC)",90 % of control
O=c1oc2c(CN3CCCC3)c(O)ccc2c2c1CCCC2,T/C,"dose: 100.0 mg/kg/injection, schedule: Q01DX001 (ip), vehicle: carboxymethylcellulose (CMC)",91 % of control
same,T/C,"dose: 200.0 mg/kg/injection, schedule: Q01DX001 (ip), vehicle: carboxymethylcellulose (CMC)",98 % of control
CC12CC3CC(C1)CC(NCCO)(C3)C2,T/C,"dose: 10.0 mg/kg/injection, schedule: Q04DX002 (ip), vehicle: Klucel (hydroxypropylcellulose) (HPC)",87 % of control
same,T/C,"dose: 20.0 mg/kg/injection, schedule: Q04DX002 (ip), vehicle: Klucel (hydroxypropylcellulose) (HPC)",91 % of control
same,T/C,"dose: 40.0 mg/kg/injection, schedule: Q04DX002 (ip), vehicle: Klucel (hydroxypropylcellulose) (HPC)",91 % of control
OCCOCCN1CCN(CC/C=C2\c3ccccc3Sc3ccc(C(F)(F)F)cc32)CC1,T/C,"dose: 1.56 mg/kg/injection, schedule: Q01DX009 (ip), vehicle: saline",104 % of control
same,T/C,"dose: 1.56 mg/kg/injection, schedule: Q04DX003 (ip), vehicle: saline",100 % of control
same,T/C,"dose: 2.5 mg/kg/injection, schedule: Q01DX009 (ip), vehicle: saline",98 % of control
same,T/C,"dose: 3.12 mg/kg/injection, schedule: Q01DX009 (ip), vehicle: saline",111 % of control
same,T/C,"dose: 3.12 mg/kg/injection, schedule: Q04DX003 (ip), vehicle: saline",94 % of control
same,T/C,"dose: 5.0 mg/kg/injection, schedule: Q01DX009 (ip), vehicle: saline",108 % of control
same,T/C,"dose: 6.25 mg/kg/injection, schedule: Q01DX009 (ip), vehicle: saline",106 % of control
same,T/C,"dose: 6.25 mg/kg/injection, schedule: Q04DX003 (ip), vehicle: saline",101 % of control
same,T/C,"dose: 6.9 mg/kg/injection, schedule: Q01DX015 (ip), vehicle: saline",115 % of control
same,T/C,"dose: 8.0 mg/kg/injection, schedule: Q04DX003 (ip), vehicle: saline with Tween-80",116 % of control
same,T/C,"dose: 9.2 mg/kg/injection, schedule: Q01DX009 (ip), vehicle: saline",103 % of control
same,T/C,"dose: 10.0 mg/kg/injection, schedule: Q01DX009 (ip), vehicle: saline",117 % of control
same,T/C,"dose: 10.3 mg/kg/injection, schedule: Q01DX015 (ip), vehicle: saline",105 % of control
same,T/C,"dose: 14.0 mg/kg/injection, schedule: Q01DX009 (ip), vehicle: saline",117 % of control
same,T/C,"dose: 20.0 mg/kg/injection, schedule: Q01DX009 (ip), vehicle: saline",117 % of control
same,T/C,"dose: 21.0 mg/kg/injection, schedule: Q01DX009 (ip), vehicle: saline",88 % of control
same,T/C,"dose: 25.0 mg/kg/injection, schedule: Q01DX001 (ip), vehicle: saline",116 % of control
same,T/C,"dose: 40.0 mg/kg/injection, schedule: Q01DX009 (ip), vehicle: saline",96 % of control
same,T/C,"dose: 50.0 mg/kg/injection, schedule: Q01DX001 (ip), vehicle: saline",105 % of control and 114 % of control
same,T/C,[1],108 % of control
same,T/C,[8],123 % of control
